Measured values reported in patent publication US20140135310A1, “SULPHONAMIDE DERIVATIVES OF ALICYCLIC AMINES FOR THE TREATMENT OF CENTRAL NERVOUS SYSTEM DISEASES” (Adamed Sp. z o.o., priority 2011, published 2014).

Legend:
[1] = target: T1, 5-HT7 receptor (Homo sapiens, UniProt P34969); test: Radioligand binding assay, serotoninergic 5-HT7 receptors; conditions: binding assay result in %, Table 5a
T1 construct: purchased PerkinElmer
In short: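 Competition binding at human 5-HT7 receptors with a radioligand, detected by scintillation counting; non-specific binding was defined with excess unlabelled ligand. IC50 came from Hill-equation fits of competition curves, and Ki from Cheng–Prusoff using radioligand concentration and Scatchard-derived KD.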

[2] = target: T2, 5-HT6 receptor (Homo sapiens, UniProt P50406); test: Radioligand binding assay, serotoninergic 5-HT6 receptors; conditions: for inhibition at 1 µM / 5-HT6 [%]: binding assay result in %, Table 5a; for Ki: read-out: Inhibition constants Ki, 5-HT6
T2 construct: purchased PerkinElmer
In short: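 Values are Ki from Cheng–Prusoff, taking IC50 from Hill nonlinear regression of competition curves and KD from a Scatchard plot. Specific binding was total minus binding with excess unlabelled ligand. Radioligand displacement was detected by scintillation counting, and data were also reported as percent of control specific binding.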

[3] = target: T3, α2C adrenergic receptors (Homo sapiens, UniProt P18825); test: Radioligand binding assay, adrenergic α2C receptors; conditions: test compound 1×10^−6 M
T3 construct: expressed in transfected cells; host or cells: CHO cells
T3 sequence (P18825 1-462): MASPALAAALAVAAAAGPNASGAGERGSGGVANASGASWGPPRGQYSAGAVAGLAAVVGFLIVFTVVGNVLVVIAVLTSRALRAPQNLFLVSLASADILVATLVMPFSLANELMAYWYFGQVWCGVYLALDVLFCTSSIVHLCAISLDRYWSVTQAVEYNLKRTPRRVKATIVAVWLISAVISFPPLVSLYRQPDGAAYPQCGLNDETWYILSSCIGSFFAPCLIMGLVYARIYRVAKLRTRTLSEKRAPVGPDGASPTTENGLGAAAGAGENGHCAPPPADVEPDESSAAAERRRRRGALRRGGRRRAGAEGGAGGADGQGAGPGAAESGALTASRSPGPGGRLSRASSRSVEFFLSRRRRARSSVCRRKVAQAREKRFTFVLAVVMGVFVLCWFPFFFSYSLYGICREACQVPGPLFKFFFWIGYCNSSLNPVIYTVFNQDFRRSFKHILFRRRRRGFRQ
Text: (§1) The specific ligand binding to the receptors is defined as the difference between the total binding and the non-specific binding determined in the presence of the excess of unlabelled ligand.
(§2) The results are expressed as a percent of control specific binding ((measured specific binding/control specific binding)×100) and as a percent inhibition of control specific binding (100−((measured specific binding/control specific binding)×100)) obtained in the presence of the test compounds. The specific ligand binding to the receptors is defined as the difference between the total binding and the nonspecific binding determined in the presence of an excess of unlabelled ligand. Scintillation counting was the method of detection of ligand binding. The IC50 values (concentration causing a half-maximal inhibition of control specific binding) were determined by non-linear regression analysis of the competition curves generated with mean replicate values using Hill equation curve fitting (Y=D+[(A−D)/(1+(C/C50)nH)], where Y=specific binding, D=minimum specific binding, A=maximum specific binding, C=compound concentration, C50=IC50, and nH=slope factor). This analysis was performed using a software developed at Cerep (Hill software) and validated by comparison with data generated by the commercial software SigmaPlot® 4.0 for Windows® (© 1997 by SPSS Inc.). The inhibition constants (Ki) were calculated using the Cheng Prusoff equation (Ki=IC50/(1+(L/KD)), where L=concentration of radioligand in the assay, and KD=affinity of the radioligand for the receptor). A scatchard plot was used to determine the Kd.
Experimental conditions for tests are given in Table 7, and results of tests for representative compounds are given in Tables 8 (α1 receptors) and in Tables 9 (α2C receptors).

[4] = target: T4, serotonin transporter (SERT) (Homo sapiens, UniProt P31645); test: Radioligand binding assay, serotonin transporter (SERT); conditions: for inhibition at 1 µM / SERT [%]: binding assay, test compound 1×10^−6 M; for Ki: read-out: Inhibition constants Ki for SERT, SERT
T4 construct: expressed in transfected cells; host or cells: CHO cells
In short: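 Radioligand competition binding with scintillation detection; specific binding is total minus binding under excess unlabelled ligand. Reported as % of control specific binding or % inhibition; IC50 from Hill-equation non-linear regression of competition curves, and Ki via Cheng-Prusoff using radioligand concentration and Scatchard-derived KD.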

[5] = target: T5, receptors D4.4 (Homo sapiens, UniProt P21917); test: Radioligand binding assay, dopaminergic D4 (D4.4) receptors; conditions: test compound 1×10^−6 M
T5 sequence (P21917 1-419): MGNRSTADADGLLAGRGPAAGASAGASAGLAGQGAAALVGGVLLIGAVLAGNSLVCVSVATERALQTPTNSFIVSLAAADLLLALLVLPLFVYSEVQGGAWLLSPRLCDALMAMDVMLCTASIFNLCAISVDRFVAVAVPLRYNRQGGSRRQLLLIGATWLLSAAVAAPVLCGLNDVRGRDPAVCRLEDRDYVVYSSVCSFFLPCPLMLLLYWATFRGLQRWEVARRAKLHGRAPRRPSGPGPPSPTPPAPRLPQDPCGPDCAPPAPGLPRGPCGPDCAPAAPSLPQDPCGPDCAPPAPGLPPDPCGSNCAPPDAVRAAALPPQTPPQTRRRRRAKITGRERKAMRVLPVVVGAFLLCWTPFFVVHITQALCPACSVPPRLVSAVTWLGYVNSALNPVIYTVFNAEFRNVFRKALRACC
Text: as §1, §2
Experimental conditions for tests are given in Table 1, the results of tests for representative compounds are given in Tables 2a and 2b (receptors D2 and D3) and in Table 3 (receptors D4).

T1 sequence (P34969 whole entry): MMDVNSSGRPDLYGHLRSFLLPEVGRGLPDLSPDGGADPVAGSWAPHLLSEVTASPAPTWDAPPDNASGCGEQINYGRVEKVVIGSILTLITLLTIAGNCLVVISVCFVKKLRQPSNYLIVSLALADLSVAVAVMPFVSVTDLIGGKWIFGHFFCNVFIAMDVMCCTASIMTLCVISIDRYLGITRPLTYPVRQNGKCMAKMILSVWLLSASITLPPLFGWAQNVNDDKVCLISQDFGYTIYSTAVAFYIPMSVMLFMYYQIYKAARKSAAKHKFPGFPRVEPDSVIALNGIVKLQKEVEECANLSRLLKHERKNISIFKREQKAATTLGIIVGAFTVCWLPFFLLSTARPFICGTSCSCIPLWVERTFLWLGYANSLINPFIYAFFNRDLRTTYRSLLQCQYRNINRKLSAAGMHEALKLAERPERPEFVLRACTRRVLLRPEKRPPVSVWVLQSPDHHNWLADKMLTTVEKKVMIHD
T4 sequence (P31645 whole entry): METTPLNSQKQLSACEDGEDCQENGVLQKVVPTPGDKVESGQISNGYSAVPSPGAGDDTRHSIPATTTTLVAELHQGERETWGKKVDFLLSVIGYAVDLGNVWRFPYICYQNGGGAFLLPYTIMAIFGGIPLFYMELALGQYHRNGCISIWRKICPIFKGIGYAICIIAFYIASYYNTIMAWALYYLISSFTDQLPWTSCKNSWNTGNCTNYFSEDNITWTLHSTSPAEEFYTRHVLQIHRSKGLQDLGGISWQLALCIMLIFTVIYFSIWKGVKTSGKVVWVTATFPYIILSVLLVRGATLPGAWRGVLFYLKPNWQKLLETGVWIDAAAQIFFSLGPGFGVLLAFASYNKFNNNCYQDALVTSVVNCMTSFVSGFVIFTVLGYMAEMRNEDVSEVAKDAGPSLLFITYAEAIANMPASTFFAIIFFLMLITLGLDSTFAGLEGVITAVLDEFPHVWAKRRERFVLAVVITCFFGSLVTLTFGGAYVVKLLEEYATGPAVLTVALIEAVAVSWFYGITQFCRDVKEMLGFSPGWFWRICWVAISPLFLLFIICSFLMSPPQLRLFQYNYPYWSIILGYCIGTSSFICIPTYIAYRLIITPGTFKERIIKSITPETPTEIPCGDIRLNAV
T2 sequence (P50406 whole entry): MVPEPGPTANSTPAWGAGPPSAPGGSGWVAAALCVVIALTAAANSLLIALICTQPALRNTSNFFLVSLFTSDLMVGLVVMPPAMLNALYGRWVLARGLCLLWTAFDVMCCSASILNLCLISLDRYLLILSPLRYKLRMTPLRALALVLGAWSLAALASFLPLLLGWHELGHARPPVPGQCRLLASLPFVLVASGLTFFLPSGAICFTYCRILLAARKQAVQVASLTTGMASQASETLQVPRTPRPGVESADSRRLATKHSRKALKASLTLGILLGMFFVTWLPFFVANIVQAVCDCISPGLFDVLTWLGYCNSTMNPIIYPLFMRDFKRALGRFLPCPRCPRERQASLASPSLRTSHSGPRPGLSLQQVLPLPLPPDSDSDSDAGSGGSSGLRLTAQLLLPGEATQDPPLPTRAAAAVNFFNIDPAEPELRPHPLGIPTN

Structure (SMILES) | inhibition at 1 µM [1] [%] | inhibition at 1 µM [2] [%] | inhibition at 1 µM [3] [%] | inhibition at 1 µM [4] [%] | inhibition at 1 µM [5] [%] | Ki [2] [nM] | Ki [4] [nM] | 5-HT7 [%] [1] [%] | 5-HT6 [%] [2] [%] | α2C [%] [3] [%] | SERT [%] [4] [%] | D4.4 [%] [5] [%]
O=S(=O)(NC1CN(CCOc2cccc3[nH]ccc23)C1)c1cccc(Cl)c1 [Compound 47, 3-Chloro-N-[1-[2-(1H-indol-4-yloxy)ethyl]azetidin-3-yl]benzene-sulphonamide] | 100 | 45 | 80 | 6 | 80 | – | – | – | – | – | – | –
O=S(=O)(NCC1CCN(CCCc2noc3cc(F)ccc23)C1)c1ccc2cc(Cl)ccc2c1 (centres unmarked) [Compound 237, 6-Chloro-N-[[1-[3-(6-fluoro-1,2-benzoxazol-3-yl)propyl]pyrrolidin-3-yl]methyl]naphthalene-2-sulphonamide] | 96 | 87 | 82 | 61 | 48 | – | – | – | – | – | – | –
Cc1c(S(=O)(=O)NCC2CCN(CCCc3noc4cc(F)ccc34)C2)sc2ccc(Cl)cc12 (centres unmarked) [Compound 238, 5-Chloro-N-[[1-[3-(6-fluoro-1,2-benzoxazol-3-yl)propyl]pyrrolidin-3-yl]methyl]-3-methyl-benzothiophene-2-sulphonamide] | 94 | 96 | 94 | 64 | 48 | 17 | – | – | – | – | – | –
O=S(=O)(NC1CCN(CCCc2c[nH]c3ccc(Cl)cc23)C1)c1cccc(F)c1 (centres unmarked) [Compound 82, N-[1-[3-(5-Chloro-1H-indol-3-yl)propyl]pyrrolidin-3-yl]-3-fluoro-benzene-sulphonamide] | 96 | 93 | 101 | 100 | 94 | 37 | 1.3 | – | – | – | – | –
CC(C)(C)c1ccc(S(=O)(=O)NCC2CN(CCOc3cccc4c3OCCO4)C2)cc1 [Compound 181, 4-tert-Butyl-N-[[1-[2-(2,3-dihydro-1,4-benzodioxin-5-yloxy)ethyl]azetidin-3-yl]methyl]benzenesulphonamide] | 92 | 30 | 96 | 26 | 64 | – | – | – | – | – | – | –
Cn1ccc2cc(S(=O)(=O)NCC3CCN(CCOc4cccc5c4OCCO5)C3)ccc21 (centres unmarked) [Compound 308, N-[[1-[2-(2,3-Dihydro-1,4-benzodioxin-5-yloxy)ethyl]pyrrolidin-3-yl]methyl]-1-methyl-indole-5-sulphonamide] | 83 | 44 | 96 | 95 | 26 | – | – | – | – | – | – | –
COc1cccc(S(=O)(=O)NCC2CN(CCCc3noc4cc(F)ccc34)C2)c1 [Compound 143, N-[[1-[3-(6-Fluoro-1,2-benzoxazol-3-yl)propyl]azetidin-3-yl]methyl]-3-methoxy-benzenesulphonamide] | 87 | 78 | 78 | 6 | 80 | – | – | – | – | – | – | –
O=S(=O)(NC1CCN(CCOc2cccc3ccccc23)C1)c1cccc(O)c1 (centres unmarked) [Compound 115, 3-Hydroksy-N-[1-[2-(1-naphthyloxy)ethyl]pyrrolidin-3-yl]benzenesulphonamide] | – | – | – | – | – | – | – | 98 | 88 | 90 | 83 | 55
Cc1cccc(S(=O)(=O)NC2CN(CCOc3cccc4c3OCCO4)C2)c1 [Compound 93, N-[1-[2-(2,3-Dihydro-1,4-benzodioxan-8-yloxy)ethyl]azetidin-3-yl]-3-methyl-benzenesulphonamide] | – | – | – | – | – | – | – | 99 | 29 | 84 | 23 | 39
O=S(=O)(N[C@H]1CCN(CCCc2noc3cc(F)ccc23)C1)c1ccc2ccccc2c1 [Compound 207, N-[(3S)-1-[3-(6-Fluoro-1,2-benzoxazol-3-yl)propyl]pyrrolidin-3-yl]-naphthalene-2-sulphonamide] | 99 | 101 | 90 | 58 | 85 | 7.7 | – | – | – | – | – | –
O=S(=O)(NC1CCN(CCCc2noc3cc(F)ccc23)CC1)c1cccc2ccccc12 [Compound 34, N-[1-[3-(6-Fluoro-1,2-benzoxazol-3-yl)propyl]-4-piperidine]-naphthalene-1-sulphonamide] | 100 | 40 | 94 | 43 | 37 | – | – | – | – | – | – | –
O=S(=O)(NC1CN(CCOc2cccc3c2OCCO3)C1)c1ccc(Cl)cc1 [Compound 92, 4-Chloro-N-[1-[2-(2,3-dihydro-1,4-benzodioxan-8-yloxy)ethyl]azetidin-3-yl]benzene-sulphonamide] | – | – | – | – | – | – | – | 99 | 23 | 76 | 10 | 35
O=S(=O)(NCC1CN(CCOc2cccc3c2OCCO3)C1)c1cc2ccccc2o1 [Compound 186, N-[[1-[2-(2,3-Dihydro-1,4-benzodioxin-5-yloxy)ethyl]azetidin-3-yl]methyl]-benzofuran-2-sulphonamide] | 97 | 32 | 96 | 39 | 55 | – | – | – | – | – | – | –
O=S(=O)(NC1CCN(CCCc2c[nH]c3ccc(F)cc23)C1)c1ccc(Cl)cc1 (centres unmarked) [Compound 77, 4-Chloro-N-[1-[3-(5-fluoro-1H-indol-3-yl)propyl]pyrrolidin-3-yl]-benzenesulphonamide] | 89 | 95 | 78 | 104 | 78 | 39 | 0.5 | – | – | – | – | –
O=S(=O)(NC1CN(CCOc2cccc3[nH]ccc23)C1)c1ccc(F)cc1 [Compound 46, 4-Fluoro-N-[1-[2-(1H-indol-4-yloxy)ethyl]azetidin-3-yl]benzene-sulphonamide] | 100 | 9 | 101 | 7 | 72 | – | – | – | – | – | – | –
O=S(=O)(NCC1CCN(CCCc2noc3cc(F)ccc23)C1)c1ccc(-c2ccccc2)cc1 (centres unmarked) [Compound 241, N-[[1-[3-(6-Fluoro-1,2-benzoxazol-3-yl)propyl]pyrrolidin-3-yl]methyl]-4-phenyl-benzenesulphonamide] | 100 | 68 | 87 | 71 | 33 | – | – | – | – | – | – | –
